The assay concerns the target T1, α-Mannosidase (Jack bean) (Canavalia ensiformis, UniProt C0HJB3).
T1 sequence (C0HJB3 1-981): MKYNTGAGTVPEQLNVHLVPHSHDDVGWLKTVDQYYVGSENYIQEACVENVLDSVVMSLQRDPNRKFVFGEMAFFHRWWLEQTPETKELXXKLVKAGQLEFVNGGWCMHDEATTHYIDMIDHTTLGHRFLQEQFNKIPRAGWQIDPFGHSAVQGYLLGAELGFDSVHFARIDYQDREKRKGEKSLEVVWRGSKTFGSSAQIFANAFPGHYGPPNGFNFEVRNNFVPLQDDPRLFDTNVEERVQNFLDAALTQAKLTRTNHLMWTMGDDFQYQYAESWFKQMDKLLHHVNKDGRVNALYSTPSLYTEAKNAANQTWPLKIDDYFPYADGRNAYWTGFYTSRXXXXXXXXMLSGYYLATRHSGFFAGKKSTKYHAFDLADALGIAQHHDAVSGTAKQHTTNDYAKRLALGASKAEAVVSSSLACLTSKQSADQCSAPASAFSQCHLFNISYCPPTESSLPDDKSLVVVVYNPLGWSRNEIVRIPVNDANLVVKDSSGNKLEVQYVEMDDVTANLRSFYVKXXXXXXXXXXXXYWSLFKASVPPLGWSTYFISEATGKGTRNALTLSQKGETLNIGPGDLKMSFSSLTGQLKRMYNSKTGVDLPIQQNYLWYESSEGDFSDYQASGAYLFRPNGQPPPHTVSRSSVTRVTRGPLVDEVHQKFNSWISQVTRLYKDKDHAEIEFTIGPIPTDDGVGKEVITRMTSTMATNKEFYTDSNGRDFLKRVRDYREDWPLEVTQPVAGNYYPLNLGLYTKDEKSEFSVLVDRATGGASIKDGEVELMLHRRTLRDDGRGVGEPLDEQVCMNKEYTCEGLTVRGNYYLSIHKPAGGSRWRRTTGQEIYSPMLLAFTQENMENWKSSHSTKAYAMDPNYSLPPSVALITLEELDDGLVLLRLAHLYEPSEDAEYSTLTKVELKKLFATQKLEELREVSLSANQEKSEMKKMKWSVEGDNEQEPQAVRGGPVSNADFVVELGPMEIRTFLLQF
Nature of the assay: Mannosidase screening assay (p-nitrophenyl-α-mannopyranoside substrate, absorbance at 405 nm). In kind it is biochemical. As to conditions: Jack bean enzyme, sodium acetate buffer pH 4.5, 37° for 30 min.

For orientation: IC50 means the midpoint of a concentration-inhibition curve. A higher IC50 goes with a need for much substance.

Experimental: This can be demostrated by the ability of the compound to inhibit Jack bean mannosidase or mannosidase II as follows: Mannosidase Screening Assay (Kang, et al., Plant Physiol. 71:551-554 (1983)). Activities of mannosidase are first screened with Jack bean enzyme using p-nitrophenyl substrate as follows using a 96-well microplate. Total Rxn mix 200µl. • 1. Add compounds to be tested and dilute to 100µl with H2O. • 2. Add 25µl of 1M sodium acetate buffer pH 4.5 containing 10mM ZnCl2. • 3. Add 25µl of enzyme or approximately 0.05 µg protein. • 4. Mix and incubate at R.T. for 30 min. • 5. Add 50µl of 10 mM p-nitrophenyl-α-mannopyranoside in H2O to start the Rxn and incubate 37° for 30 min. Stop reaction by addition 100µl of 0.2M (2%) sodium carbonate solution (pH∼12). Read absorbance at 405 nm.

`CN[C@@H]1[C@@H](O)[C@@H](O)[C@H](O)[C@H]1CO` [1,3β,5β,R=CH3, (1α,2β,3β,4α,5β)-Methyl[2,3,4-trihydroxy-5-(hydroxymethyl)cyclopentyl]amine] gave a half-maximal inhibitory concentration (IC50) of 62.1 nM.

Values taken from EP0451834B1, “Alpha-mannosidase and fucosidase inhibitors” (MERRELL PHARMACEUTICALS INC., priority 1990, dated 1991).
